Experimental data: ChEMBL document CHEMBL2176989, “Design, synthesis, and pharmacological evaluation of piperidin-4-yl amino aryl sulfonamides: novel, potent, selective, orally active, and brain penetrant 5-HT₆ receptor antagonists” (J Med Chem, 2012)
The source made the active and inactive calls. The calls are words filed in the database; no cut-off is given here.

Key:
[1] = AUC (0 to 24 hrs) in Wistar rat at 10 mg/kg, iv; format: ADME, organism-based; set-up: time < 24 hr, dose 10 mg/kg, route intravenous; settings: plasma
D(2) dopamine receptor = D(2) dopamine receptor (Homo sapiens, UniProt P14416); test: Binding affinity to dopamine D2 receptor
Sequence of D(2) dopamine receptor (P14416 whole entry): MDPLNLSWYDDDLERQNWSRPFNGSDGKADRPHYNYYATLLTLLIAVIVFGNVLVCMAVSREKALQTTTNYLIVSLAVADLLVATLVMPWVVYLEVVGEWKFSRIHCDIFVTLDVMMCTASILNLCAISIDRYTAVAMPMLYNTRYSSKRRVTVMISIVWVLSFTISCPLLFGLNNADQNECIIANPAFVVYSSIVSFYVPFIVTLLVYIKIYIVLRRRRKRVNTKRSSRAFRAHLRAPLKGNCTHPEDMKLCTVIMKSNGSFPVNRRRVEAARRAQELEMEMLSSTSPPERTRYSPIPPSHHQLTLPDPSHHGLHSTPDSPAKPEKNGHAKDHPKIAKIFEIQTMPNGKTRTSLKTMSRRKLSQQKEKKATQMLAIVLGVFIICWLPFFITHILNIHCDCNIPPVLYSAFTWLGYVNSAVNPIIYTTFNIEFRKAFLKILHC

Rattus norvegicus [2] = test: Procognitive activity in Wistar rat assessed as reversal of time delay induced-memory deficit at 1 mg/kg, po by object recognition test; format: functional, organism-based; set-up: dose 1 mg/kg
Rattus norvegicus [3] = test: Procognitive activity in Wistar rat assessed as reversal of time delay induced-memory deficit at 3 mg/kg, po by object recognition test; format: functional, organism-based; set-up: dose 3 mg/kg
Cytochrome P450 2D6 = Cytochrome P450 2D6 (Homo sapiens, UniProt P10635); test: Inhibition of CYP2D6 in human liver microsomes using dextromethorphan as substrate after 10 mins by LC-MS/MS analysis in presence of NADPH
Sequence of Cytochrome P450 2D6 (P10635 whole entry): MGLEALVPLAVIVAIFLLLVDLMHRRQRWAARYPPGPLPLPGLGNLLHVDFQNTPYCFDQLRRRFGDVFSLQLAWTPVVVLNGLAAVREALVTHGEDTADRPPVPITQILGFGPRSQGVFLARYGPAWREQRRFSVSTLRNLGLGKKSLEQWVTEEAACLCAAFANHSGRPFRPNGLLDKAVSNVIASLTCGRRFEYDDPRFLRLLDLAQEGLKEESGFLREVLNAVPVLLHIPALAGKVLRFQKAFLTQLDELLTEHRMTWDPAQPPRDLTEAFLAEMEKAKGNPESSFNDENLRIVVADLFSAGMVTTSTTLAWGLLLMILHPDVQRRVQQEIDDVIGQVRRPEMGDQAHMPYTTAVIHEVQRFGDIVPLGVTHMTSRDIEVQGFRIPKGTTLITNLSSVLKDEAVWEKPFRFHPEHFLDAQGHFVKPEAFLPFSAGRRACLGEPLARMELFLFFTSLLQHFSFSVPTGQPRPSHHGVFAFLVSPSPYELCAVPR

[4] = biological target: T1, 5-hydroxytryptamine receptor 3A (Homo sapiens, UniProt P46098); test: Binding affinity to 5HT3 receptor
T1 sequence (P46098 whole entry): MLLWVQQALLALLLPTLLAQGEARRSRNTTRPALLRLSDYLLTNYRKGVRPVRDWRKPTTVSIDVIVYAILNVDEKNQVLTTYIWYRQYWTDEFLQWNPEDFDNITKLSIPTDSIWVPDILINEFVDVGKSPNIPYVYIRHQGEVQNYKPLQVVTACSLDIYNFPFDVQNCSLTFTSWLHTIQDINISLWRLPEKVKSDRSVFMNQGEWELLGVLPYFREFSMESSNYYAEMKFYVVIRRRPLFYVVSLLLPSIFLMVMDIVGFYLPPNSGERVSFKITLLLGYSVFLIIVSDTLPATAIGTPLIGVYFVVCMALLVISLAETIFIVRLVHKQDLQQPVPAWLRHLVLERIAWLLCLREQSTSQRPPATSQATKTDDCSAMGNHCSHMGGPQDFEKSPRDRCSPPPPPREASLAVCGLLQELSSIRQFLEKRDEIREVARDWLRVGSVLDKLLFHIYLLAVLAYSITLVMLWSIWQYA

[5] = Drug metabolism in human liver microsomes at 2.5 uM at 30 mins by LC-MS/MS analysis; format: ADME, Microsome; settings: read-out: Drug metabolism
[6] = biological target: 5-hydroxytryptamine receptor 6 (Homo sapiens) (UniProt P50406); test: Antagonist activity at human recombinant 5HT6 receptor expressed in CHO cells assessed as inhibition of 5HT-induced luciferase activity after 4 hrs by reporter gene assay; format: functional, cell-based
Sequence of 5-hydroxytryptamine receptor 6 (Homo sapiens) (P50406 whole entry): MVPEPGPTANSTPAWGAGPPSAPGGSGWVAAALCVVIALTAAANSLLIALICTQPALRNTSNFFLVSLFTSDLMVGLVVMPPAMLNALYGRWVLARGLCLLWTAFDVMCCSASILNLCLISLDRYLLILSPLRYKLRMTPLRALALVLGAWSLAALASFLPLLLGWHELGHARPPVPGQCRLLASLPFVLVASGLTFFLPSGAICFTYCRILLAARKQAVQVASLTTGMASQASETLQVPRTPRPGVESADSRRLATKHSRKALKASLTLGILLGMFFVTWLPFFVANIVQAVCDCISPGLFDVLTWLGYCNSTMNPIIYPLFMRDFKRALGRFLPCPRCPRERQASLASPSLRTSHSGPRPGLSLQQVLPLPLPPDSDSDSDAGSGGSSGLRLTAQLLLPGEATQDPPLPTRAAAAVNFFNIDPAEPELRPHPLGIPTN

[7] = Apparent volume of distribution in Wistar rat at 10 mg/kg, iv; format: ADME, organism-based; set-up: dose 10 mg/kg, route intravenous; settings: in vivo, read-out: Vz
[8] = biological target: 5-hydroxytryptamine receptor 2A (Homo sapiens, UniProt P28223); test: Binding affinity to 5HT2A receptor
Sequence of 5-hydroxytryptamine receptor 2A (P28223 whole entry): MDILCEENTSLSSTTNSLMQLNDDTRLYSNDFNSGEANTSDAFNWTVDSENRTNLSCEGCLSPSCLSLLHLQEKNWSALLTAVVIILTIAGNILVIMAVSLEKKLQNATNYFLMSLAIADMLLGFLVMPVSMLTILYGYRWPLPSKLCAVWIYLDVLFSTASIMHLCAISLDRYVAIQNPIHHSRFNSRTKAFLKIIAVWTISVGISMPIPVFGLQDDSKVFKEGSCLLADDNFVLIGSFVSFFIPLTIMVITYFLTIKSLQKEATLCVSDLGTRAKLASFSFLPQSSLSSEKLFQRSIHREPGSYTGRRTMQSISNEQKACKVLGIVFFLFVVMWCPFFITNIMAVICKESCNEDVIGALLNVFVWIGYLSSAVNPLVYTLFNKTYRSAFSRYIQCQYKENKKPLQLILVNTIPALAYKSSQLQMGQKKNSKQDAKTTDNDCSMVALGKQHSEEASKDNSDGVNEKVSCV

[9] = Oral bioavailability in fasted Wistar rat at 10 mg/kg; format: ADME, organism-based; settings: in vivo
[10] = Ratio of drug uptake in brain to plasma in Wistar rat at 10 mg/kg, po after 1 hr; format: ADME, organism-based; set-up: dose 10 mg/kg, route oral; settings: read-out: BPR
[11] = biological target: T2, 5-hydroxytryptamine receptor 1A (Homo sapiens, UniProt P08908); test: Binding affinity to 5HT1A receptor
T2 sequence (P08908 whole entry): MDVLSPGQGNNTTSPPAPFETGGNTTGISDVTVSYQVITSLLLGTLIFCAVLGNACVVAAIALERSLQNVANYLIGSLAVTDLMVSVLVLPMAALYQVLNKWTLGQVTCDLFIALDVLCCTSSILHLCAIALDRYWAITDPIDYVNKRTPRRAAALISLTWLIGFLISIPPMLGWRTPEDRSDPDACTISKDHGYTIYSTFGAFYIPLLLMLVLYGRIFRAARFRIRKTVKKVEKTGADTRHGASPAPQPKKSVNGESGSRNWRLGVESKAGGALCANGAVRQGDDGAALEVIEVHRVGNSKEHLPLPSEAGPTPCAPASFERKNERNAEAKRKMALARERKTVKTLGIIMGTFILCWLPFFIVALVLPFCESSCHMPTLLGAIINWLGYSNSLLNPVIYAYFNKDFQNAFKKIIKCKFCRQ

[12] = biological target: Sodium-dependent serotonin transporter (Homo sapiens, UniProt P31645); test: Binding affinity to SERT
Sequence of Sodium-dependent serotonin transporter (P31645 whole entry): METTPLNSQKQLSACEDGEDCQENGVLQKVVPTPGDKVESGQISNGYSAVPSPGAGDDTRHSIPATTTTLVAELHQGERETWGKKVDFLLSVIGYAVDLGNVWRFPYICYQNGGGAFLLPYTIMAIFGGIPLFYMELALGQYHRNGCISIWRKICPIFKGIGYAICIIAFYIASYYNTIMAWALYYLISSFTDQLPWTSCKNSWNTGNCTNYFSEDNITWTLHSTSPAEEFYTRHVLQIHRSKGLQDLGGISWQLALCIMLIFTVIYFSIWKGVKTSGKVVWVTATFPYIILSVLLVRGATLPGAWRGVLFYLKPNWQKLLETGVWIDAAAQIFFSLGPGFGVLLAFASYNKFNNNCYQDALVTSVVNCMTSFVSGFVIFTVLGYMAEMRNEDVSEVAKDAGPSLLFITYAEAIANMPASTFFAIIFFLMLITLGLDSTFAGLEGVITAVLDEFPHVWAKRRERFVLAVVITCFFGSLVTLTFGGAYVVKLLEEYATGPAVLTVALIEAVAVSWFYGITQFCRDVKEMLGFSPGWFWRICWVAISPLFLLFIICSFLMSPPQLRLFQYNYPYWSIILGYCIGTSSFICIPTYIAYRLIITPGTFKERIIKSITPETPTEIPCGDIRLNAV

[13] = AUC (0 to 24 hrs) in fasted Wistar rat at 10 mg/kg, po; format: ADME, organism-based; set-up: time < 24 hr, dose 10 mg/kg, route oral; settings: plasma
[14] = biological target: 5-hydroxytryptamine receptor 6 (Homo sapiens) (UniProt P50406); test: Antagonist activity at human recombinant 5HT6 receptor expressed in CHO cells assessed as inhibition of 5HT-induced luciferase activity after 4 hrs by reporter gene assay relative to control; format: functional, cell-based
[15] = Tmax in fasted Wistar rat at 10 mg/kg, po; format: ADME, organism-based; set-up: dose 10 mg/kg, route oral; settings: in vivo
[16] = Clearance in Wistar rat at 10 mg/kg, iv; format: ADME, organism-based; set-up: dose 10 mg/kg, route intravenous; settings: in vivo
[17] = Drug metabolism in Wistar rat liver microsomes at 2.5 uM at 30 mins by LC-MS/MS analysis; format: ADME, Microsome; settings: read-out: Drug metabolism
[18] = biological target: T3, Alpha-1B adrenergic receptor (Homo sapiens, UniProt P35368); test: Binding affinity to adrenergic alpha1B receptor
T3 sequence (P35368 whole entry): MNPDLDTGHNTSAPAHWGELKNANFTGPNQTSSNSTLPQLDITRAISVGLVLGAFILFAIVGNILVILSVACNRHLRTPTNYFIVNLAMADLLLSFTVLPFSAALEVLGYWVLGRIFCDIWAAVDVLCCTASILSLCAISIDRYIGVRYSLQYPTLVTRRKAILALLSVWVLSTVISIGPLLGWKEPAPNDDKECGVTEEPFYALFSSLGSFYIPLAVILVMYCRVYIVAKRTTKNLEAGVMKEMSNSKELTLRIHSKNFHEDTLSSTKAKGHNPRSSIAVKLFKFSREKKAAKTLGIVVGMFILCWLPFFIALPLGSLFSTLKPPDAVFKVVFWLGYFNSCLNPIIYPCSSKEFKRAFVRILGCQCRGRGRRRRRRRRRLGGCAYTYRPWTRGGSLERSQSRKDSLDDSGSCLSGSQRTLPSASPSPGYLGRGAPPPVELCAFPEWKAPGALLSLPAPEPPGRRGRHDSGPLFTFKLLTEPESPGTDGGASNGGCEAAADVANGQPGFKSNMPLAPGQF

[19] = biological target: Voltage-gated inwardly rectifying potassium channel KCNH2 (Homo sapiens, UniProt Q12809); test: Displacement of [3H]astemizole from human ERG by microbeta scintillation counting
Sequence of Voltage-gated inwardly rectifying potassium channel KCNH2 (Q12809 whole entry): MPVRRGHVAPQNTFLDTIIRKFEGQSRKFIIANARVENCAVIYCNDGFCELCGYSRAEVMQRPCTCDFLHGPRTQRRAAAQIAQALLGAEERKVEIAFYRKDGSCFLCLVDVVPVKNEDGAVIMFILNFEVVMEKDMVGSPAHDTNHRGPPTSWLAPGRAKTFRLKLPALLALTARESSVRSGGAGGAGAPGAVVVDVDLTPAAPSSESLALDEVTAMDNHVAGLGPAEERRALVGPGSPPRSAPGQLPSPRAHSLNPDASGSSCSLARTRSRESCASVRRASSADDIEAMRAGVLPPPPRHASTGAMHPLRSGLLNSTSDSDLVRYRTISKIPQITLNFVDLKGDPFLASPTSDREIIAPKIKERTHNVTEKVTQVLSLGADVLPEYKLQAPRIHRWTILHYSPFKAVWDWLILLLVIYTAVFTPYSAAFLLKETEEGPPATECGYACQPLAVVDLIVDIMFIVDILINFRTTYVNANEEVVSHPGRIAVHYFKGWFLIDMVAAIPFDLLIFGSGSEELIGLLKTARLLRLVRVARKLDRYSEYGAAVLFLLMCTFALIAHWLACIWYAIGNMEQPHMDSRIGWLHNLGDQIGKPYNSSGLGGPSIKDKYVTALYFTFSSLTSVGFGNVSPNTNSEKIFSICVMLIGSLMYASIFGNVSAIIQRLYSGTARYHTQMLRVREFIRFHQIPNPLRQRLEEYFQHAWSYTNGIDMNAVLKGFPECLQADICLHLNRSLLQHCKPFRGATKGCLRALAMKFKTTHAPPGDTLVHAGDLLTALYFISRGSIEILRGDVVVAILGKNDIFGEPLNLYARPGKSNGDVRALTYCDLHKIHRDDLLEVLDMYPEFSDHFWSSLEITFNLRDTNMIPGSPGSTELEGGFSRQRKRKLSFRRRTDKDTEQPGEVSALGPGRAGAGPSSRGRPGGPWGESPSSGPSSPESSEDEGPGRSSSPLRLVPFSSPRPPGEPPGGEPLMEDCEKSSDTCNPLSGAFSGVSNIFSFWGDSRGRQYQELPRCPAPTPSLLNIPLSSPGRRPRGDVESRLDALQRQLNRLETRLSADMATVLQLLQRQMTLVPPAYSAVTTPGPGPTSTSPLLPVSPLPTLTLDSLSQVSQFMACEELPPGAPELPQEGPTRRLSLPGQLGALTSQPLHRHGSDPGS

Cytochrome P450 3A4 = Cytochrome P450 3A4 (Homo sapiens, UniProt P08684); test: Inhibition of CYP3A4 in human liver microsomes using midazolam as substrate after 5 mins by LC-MS/MS analysis in presence of NADPH
Sequence of Cytochrome P450 3A4 (P08684 whole entry): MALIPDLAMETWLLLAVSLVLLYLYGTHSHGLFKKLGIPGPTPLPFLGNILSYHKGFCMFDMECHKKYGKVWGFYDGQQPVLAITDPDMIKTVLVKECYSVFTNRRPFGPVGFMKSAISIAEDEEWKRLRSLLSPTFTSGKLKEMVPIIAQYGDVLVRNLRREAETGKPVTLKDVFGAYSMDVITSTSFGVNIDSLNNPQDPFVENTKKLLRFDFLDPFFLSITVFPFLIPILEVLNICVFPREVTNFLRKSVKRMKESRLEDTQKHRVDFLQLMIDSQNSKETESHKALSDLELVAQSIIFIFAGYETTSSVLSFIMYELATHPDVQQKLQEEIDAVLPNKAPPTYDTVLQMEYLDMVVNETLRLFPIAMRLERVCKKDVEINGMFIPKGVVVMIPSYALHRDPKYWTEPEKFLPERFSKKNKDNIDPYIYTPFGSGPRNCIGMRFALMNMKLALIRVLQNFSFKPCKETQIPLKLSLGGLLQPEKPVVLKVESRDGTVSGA

[20] = biological target: T4, 5-hydroxytryptamine receptor 2C (Homo sapiens, UniProt P28335); test: Binding affinity to 5HT2C receptor
T4 sequence (P28335 whole entry): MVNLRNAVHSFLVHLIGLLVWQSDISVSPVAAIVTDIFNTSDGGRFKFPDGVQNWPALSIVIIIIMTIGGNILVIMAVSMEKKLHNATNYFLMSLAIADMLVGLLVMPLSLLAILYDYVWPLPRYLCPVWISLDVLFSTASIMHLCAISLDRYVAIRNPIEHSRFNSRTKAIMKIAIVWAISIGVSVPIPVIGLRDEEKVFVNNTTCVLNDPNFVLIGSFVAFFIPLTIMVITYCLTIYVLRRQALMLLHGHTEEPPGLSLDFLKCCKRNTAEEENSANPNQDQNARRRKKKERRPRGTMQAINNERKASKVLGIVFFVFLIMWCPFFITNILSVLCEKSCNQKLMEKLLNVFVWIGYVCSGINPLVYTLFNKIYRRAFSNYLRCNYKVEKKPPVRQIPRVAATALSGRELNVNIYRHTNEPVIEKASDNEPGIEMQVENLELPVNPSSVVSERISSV

[21] = Cmax in fasted Wistar rat at 10 mg/kg, po; format: ADME, organism-based; set-up: dose 10 mg/kg, route oral; settings: in vivo
Rattus norvegicus [22] = test: Toxicity in po dosed Wistar rat assessed as phospholipidosis in multiple organs administered as repeated dose for 7 days; format: organism-based; settings: in vivo, 168 h
[23] = biological target: 5-hydroxytryptamine receptor 4 (Homo sapiens, UniProt Q13639); test: Binding affinity to 5HT4 receptor
Sequence of 5-hydroxytryptamine receptor 4 (Q13639 whole entry): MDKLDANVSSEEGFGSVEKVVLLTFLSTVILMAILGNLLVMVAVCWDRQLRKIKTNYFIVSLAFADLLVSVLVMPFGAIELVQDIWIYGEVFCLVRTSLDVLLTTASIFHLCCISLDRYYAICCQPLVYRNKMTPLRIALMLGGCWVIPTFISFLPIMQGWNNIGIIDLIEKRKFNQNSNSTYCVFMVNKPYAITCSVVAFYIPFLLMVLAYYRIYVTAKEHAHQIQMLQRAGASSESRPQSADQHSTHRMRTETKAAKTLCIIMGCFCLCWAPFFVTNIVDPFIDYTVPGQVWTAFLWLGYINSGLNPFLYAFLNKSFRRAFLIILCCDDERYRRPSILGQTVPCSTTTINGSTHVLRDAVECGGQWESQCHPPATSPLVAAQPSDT

Histamine H1 receptor = Histamine H1 receptor (Homo sapiens, UniProt P35367); test: Binding affinity to histamine H1 receptor
[24] = Half life in Wistar rat at 10 mg/kg, iv; format: ADME, organism-based; set-up: dose 10 mg/kg, route intravenous; settings: in vivo
[25] = biological target: 5-hydroxytryptamine receptor 7 (Homo sapiens, UniProt P34969); test: Binding affinity to 5HT7 receptor
Sequence of 5-hydroxytryptamine receptor 7 (P34969 whole entry): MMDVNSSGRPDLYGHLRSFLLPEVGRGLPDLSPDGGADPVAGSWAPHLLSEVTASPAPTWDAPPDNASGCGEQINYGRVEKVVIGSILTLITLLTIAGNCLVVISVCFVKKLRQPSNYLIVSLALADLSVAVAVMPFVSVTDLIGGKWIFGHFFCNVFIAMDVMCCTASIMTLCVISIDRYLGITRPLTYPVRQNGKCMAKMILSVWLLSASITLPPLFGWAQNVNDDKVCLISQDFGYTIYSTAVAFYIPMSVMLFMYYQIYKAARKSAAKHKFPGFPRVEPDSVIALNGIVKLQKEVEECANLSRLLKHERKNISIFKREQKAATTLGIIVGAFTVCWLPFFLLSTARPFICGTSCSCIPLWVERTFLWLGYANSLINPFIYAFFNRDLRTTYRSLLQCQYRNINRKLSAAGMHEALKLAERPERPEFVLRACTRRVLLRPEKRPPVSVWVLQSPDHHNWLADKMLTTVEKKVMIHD

[26] = biological target: Sodium-dependent dopamine transporter (Homo sapiens, UniProt Q01959); test: Binding affinity to dopamine transporter

AUC(0-t) at 24 h [1]: 2760 ng·h/mL
Ki (D(2) dopamine receptor): 303 nM
IC50 (Cytochrome P450 2D6): 14.7 µM
IC50 [4]: > 10 µM
metabolised at 0.5 h, 2.5 µM [5]: 0%
Kb [6]: 0.02 nM
Vd [7]: 11 L/kg
Ki [8]: 536 nM
bioavailability [9]: 75%
Kp at 1 h [10]: 3.8
EC50 [11]: > 1000 nM
Ki [12]: 1940 nM
AUC(0-t) at 24 h [13]: 2090 ng·h/mL
Imax [14]: 100%
Tmax [15]: 1.67 h
clearance [16]: 59 mL/min/kg
metabolised at 0.5 h, 2.5 µM [17]: 40%
Ki [18]: 955 nM
IC50 (Cytochrome P450 3A4): 6.46 µM
Ki [20]: 3.12 µM
Cmax [21]: 296 ng/mL
EC50 [23]: > 10 µM
Ki (Histamine H1 receptor): 682 nM
half-life [24]: 132 min
Ki [25]: 6.37 µM
Ki [26]: 2900 nM
Structure (SMILES): COc1ccc(S(=O)(=O)n2cc(C)c3cc(Cl)ccc32)cc1NC1CCN(C)CC1
Activity (Rattus norvegicus [2]): Active
Activity (Rattus norvegicus [3]): Active
Ki [19]: 800 nM
Activity (Rattus norvegicus [22]): Toxic
